The source of these data is ChEMBL document CHEMBL1138605, “Identification of 3-substituted N-benzhydryl-nortropane analogs as nociceptin receptor ligands for the management of cough and anxiety” (Bioorg Med Chem Lett, 2009).

Each structure is given as a SMILES string. Activity calls are given as the source filed them. No cut-off for these calls is given here.

Data set [1] has as its target T1, Nuclear receptor subfamily 1 group I member 2 (Homo sapiens, UniProt O75469).
T1 sequence (O75469 whole entry): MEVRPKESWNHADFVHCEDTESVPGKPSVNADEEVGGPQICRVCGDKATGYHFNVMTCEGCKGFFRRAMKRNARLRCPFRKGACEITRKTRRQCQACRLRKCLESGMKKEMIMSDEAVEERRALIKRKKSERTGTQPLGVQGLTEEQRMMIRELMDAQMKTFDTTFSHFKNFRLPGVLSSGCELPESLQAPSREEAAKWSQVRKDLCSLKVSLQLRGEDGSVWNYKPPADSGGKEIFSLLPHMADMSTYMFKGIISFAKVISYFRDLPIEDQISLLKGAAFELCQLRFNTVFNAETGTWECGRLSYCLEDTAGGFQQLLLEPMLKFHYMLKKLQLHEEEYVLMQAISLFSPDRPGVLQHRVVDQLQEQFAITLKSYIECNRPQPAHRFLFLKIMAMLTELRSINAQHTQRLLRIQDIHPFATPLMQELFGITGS
Put plainly: Activity at PXR in human hepatocytes assessed as induction of CYP3A4 activity at 1 uM relative rifampicin. The data set is classed as cell-based, Hepatocyte.

In data set [2] the target is T2, Mu-type opioid receptor (Homo sapiens, UniProt P35372). Put plainly: Agonist activity at human mu opioid receptor assessed as stimulation of GTPgammaS binding at 10 uM. It is filed as functional.
T2 sequence (P35372 whole entry): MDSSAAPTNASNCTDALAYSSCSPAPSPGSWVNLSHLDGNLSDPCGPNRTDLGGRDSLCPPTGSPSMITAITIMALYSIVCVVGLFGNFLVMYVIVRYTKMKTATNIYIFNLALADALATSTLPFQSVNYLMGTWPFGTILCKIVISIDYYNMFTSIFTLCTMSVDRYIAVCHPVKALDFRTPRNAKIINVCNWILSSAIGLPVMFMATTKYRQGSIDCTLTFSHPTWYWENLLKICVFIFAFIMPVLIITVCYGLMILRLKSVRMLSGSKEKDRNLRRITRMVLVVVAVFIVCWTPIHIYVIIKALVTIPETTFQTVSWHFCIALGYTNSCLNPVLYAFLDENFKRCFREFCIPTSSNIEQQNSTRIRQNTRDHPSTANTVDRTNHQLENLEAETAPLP
Data set [3] deals with T3, Nociceptin receptor (Homo sapiens, UniProt P41146). Briefly: Displacement of [125I][Tyr14]nociceptin from human cloned ORL1 receptor expressed in CHO cells. It is filed as cell-based.
T3 sequence (P41146 whole entry): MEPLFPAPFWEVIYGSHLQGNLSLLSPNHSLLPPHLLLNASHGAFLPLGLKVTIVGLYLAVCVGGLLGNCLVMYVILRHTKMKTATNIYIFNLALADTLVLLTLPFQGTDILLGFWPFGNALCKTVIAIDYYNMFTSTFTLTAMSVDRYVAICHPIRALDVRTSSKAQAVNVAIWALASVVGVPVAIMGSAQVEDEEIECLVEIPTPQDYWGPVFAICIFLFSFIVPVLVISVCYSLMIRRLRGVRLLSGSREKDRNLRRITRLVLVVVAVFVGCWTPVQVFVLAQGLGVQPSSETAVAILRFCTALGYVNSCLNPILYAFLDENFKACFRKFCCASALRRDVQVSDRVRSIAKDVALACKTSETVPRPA
Data set [4] has as its target T3, Nociceptin receptor. Put plainly: Agonist activity at human cloned ORL1 receptor assessed as stimulation of GTPgammaS binding. It is filed as functional.
The target in data set [5] is T2, Mu-type opioid receptor. Put plainly: Displacement of [3H]diprenorphine from human mu opioid receptor expressed in CHO cells. It is filed as cell-based.
The target in data set [6] is T2, Mu-type opioid receptor. Put plainly: Agonist activity at human mu opioid assessed as stimulation of GTPgammaS binding. The data set is classed as functional.
Data set [7] addresses T3, Nociceptin receptor. Put plainly: Agonist activity at human cloned ORL1 receptor assessed as stimulation of GTPgammaS binding at 10 uM. The data set is classed as functional.
Data set [8] is filed under the species Homo sapiens. Put plainly: Selectivity for human cloned ORL1 receptor over human mu opioid receptor.
Data set [9] concerns Cavia porcellus. Put plainly: Antitussive activity in po dosed guinea pig GPPV model assessed as reduction of capsaicin-induced coughing after 2 hrs administered 15 mins before capsaicin challenge. The data set is classed as functional.
In data set [10] the test system is Cavia porcellus. Briefly: Anxiolytic like activity in guinea pig assessed as reduction in number of vocalization produced due to separation measured at 3 mg/kg, po after 2 hrs. The data set is classed as functional, organism-based. The arrangement: dose 3 mg/kg.
Data set [11] deals with Cavia porcellus. Briefly: Antitussive activity in guinea pig GPPV model assessed as reduction of capsaicin-induced coughing at 0.3 mg/kg, po after 2 hrs administered 15 mins before capsaicin challenge. It is filed as functional. Set-up: scale not given: the % may be the effect or the level left.
A short description of data set [12]: Ratio of ED50 for antitussive activity in guinea pig GPPV model to ED50 for anxiolytic like activity in rat. The data set is classed as functional.
For data set [13], the species on record is Rattus norvegicus. Briefly: Anxiolytic like activity in rat assessed as conditioned lick suppression after 2 hrs. It is filed as functional.
The species named for data set [14] is Cavia porcellus. Put plainly: Anxiolytic like activity in guinea pig assessed as reduction in number of vocalization produced due to separation measured after 2 hrs. It is filed as functional.
In data set [15] the target is Kappa-type opioid receptor (Homo sapiens, UniProt P41145). Briefly: Displacement of [3H]diprenorphine from human kappa opioid receptor expressed in CHO cells. The data set is classed as cell-based.
Chain of Kappa-type opioid receptor (P41145 whole entry): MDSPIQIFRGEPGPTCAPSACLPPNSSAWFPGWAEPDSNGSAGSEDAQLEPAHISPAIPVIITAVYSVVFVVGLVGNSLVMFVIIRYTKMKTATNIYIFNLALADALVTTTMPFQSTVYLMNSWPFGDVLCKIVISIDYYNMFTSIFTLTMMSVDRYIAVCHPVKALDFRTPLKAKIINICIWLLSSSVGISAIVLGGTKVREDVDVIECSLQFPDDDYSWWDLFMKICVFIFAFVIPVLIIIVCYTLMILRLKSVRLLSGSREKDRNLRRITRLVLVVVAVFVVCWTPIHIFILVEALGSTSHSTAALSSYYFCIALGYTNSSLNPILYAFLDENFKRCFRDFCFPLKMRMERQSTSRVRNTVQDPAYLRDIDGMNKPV
Data set [16] deals with Delta-type opioid receptor (Homo sapiens, UniProt P41143). Put plainly: Displacement of [3H]diprenorphine from human delta opioid receptor expressed in CHO cells. The data set is classed as cell-based.
Chain of Delta-type opioid receptor (P41143 whole entry): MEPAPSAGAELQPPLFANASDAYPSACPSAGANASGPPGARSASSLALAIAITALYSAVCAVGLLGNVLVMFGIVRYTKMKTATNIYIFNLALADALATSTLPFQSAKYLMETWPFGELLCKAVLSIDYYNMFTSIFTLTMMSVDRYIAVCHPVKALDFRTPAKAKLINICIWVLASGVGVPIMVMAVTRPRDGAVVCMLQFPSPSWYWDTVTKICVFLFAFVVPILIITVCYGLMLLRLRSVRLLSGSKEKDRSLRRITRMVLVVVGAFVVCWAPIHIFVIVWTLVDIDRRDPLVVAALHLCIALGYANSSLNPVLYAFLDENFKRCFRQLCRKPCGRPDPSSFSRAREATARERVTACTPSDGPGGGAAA
For data set [17], the target named is T3, Nociceptin receptor. Briefly: Agonist activity at human cloned ORL1 receptor assessed as stimulation of GTPgammaS binding at 5.5 uM. The data set is classed as functional.
Data set [18] deals with T2, Mu-type opioid receptor. Briefly: Agonist activity at human mu opioid receptor assessed as stimulation of GTPgammaS binding at 5.5 uM. The data set is classed as functional.

Regarding `NC(=O)[C@@]1(Cc2ccc(F)cc2)C[C@H]2CC[C@@H](C1)N2C(c1ccccc1Cl)c1ccccc1Cl`, in data set [1], the Ratio is given as 0.48. The Activity worked out at 107% in data set [2] and 108% in data set [7]. The Ki in data set [3] was determined as 3 nM; in data set [5], 85 nM. The EC50 was determined as 11 nM in data set [4] and 540 nM in [6].
On to `CC(=O)N[C@]1(c2ccccn2)C[C@H]2CC[C@@H](C1)N2C(c1ccccc1Cl)c1ccccc1Cl`, for which the Ratio in data set [1] is on record as 1.97. In data set [8], the fold change (FC) stood at 52. Besides, the Activity in data set [2] came out at 68%; in [7], 84%. Besides, the Ki was determined as 6 nM in data set [3] and 312 nM in data set [5]. Also, the EC50 in [4] worked out at 19 nM; in [6] it was 1930 nM.
Take `CC(=O)NC[C@]1(c2ccccc2)C[C@H]2CC[C@@H](C1)N2C(c1ccccc1Cl)c1ccccc1Cl`: the Ratio in [1] amounted to 0.94. Further, in data set [3], the affinity corresponds to a Ki of 20 nM. The concentration for a half-maximal effect (EC50) in data set [4] came to 269 nM. Besides, the ED50 in [9] is 0.19 mg/kg.
For `COC(=O)N[C@]1(c2ccccn2)C[C@H]2CC[C@@H](C1)N2C(c1ccccc1Cl)c1ccccc1Cl`, in data set [1], the Ratio is listed as 0.98. This molecule registered a fold change (FC) in data set [8] of 74. The Activity in data set [2] came out at 52%; in data set [7], 92%. For the same molecule, the values for the Ki in [3] and in data set [5] were 10 nM and 741 nM, respectively. For the same molecule, the 50% effective concentration (EC50) in [4] turned out to be 87 nM; in data set [6], 3780 nM.
`COC(=O)NC1(c2ccc(F)cn2)C[C@H]2CC[C@H](C1)N2C(c1ccccc1Cl)c1ccccc1Cl` (relative stereo): in data set [1], the Ratio turned out to be 1.38. The molecule also came in with a fold change (FC) in [8] of 74. In addition, the Ki was determined as 12 nM in data set [3] and 887 nM in [5].
With `N#Cc1ccc([C@@]2(C(N)=O)C[C@H]3CC[C@@H](C2)N3C(c2ccccc2Cl)c2ccccc2Cl)nc1`, the fold change (FC) in data set [8] stood at 4. Moreover, the Ki in data set [3] was determined as 75 nM; in [5] it was 481 nM.
Consider `NC(=O)[C@]1(c2ccc(Br)cn2)C[C@H]2CC[C@@H](C1)N2C(c1ccccc1Cl)c1ccccc1Cl`, for which the Ratio in data set [1] was found to be 0.09. The molecule further showed a fold change (FC) in [8] of 4. Moreover, the Activity amounted to 89% in data set [2] and 75% in [7]. Moreover, the values for the Ki in data set [3] and in data set [5] were 29 nM and 153 nM, respectively. The concentration for a half-maximal effect (EC50) in [4] was determined as 63 nM; in [6], 421 nM.
As for `NC(=O)C[C@]1(Cc2ccc(F)cc2)C[C@H]2CC[C@@H](C1)N2C(c1ccccc1Cl)c1ccccc1Cl`, the outcome in [10] was inactive. In addition, in [1], the Ratio is recorded as 0.35. Also, the fold change (FC) in [8] was 63. Further, the results for the Ki in data set [3] and in [5] were 3 nM and 190 nM, respectively. Also, the Activity in data set [11] is on record as 38%.
Regarding `NC(=O)[C@]1(c2ccc(F)cn2)C[C@H]2CC[C@@H](C1)N2C(c1ccccc1Cl)c1ccccc1Cl`, the “Ratio ED50” value in data set [12] stood at 15. The ED50 was found to be 1.7 mg/kg in [13], 0.3 mg/kg in data set [14] and 0.02 mg/kg in [9]. In addition, in data set [1], the Ratio is recorded as 0.29. Besides, the fold change (FC) in data set [8] turned out to be 37. Further, the inhibition constant Ki was 7 nM in data set [3], 123 nM in data set [5], 1610 nM in data set [15] and 3350 nM in data set [16]. Further, the results for the half-maximal effective concentration (EC50) in data set [4] and in [6] were 20 nM and 733 nM, respectively. Moreover, the Activity in data set [7] is 95%.
Take `COC(=O)N[C@]1(c2ccc(Cl)cn2)C[C@H]2CC[C@@H](C1)N2C(c1ccccc1Cl)c1ccccc1Cl`: the Ratio in data set [1] stood at 1.06. The molecule also had a fold change (FC) in data set [8] of 74. Also, the values for the Ki in data set [3] and in [5] were 12 nM and 961 nM, respectively.
For `COC(=O)N[C@]1(Cc2ccc(Cl)cc2)C[C@H]2CC[C@@H](C1)N2C(c1ccccc1Cl)c1ccccc1Cl`, the Ratio in data set [1] is 1.1. For the same molecule, the Activity was found to be 85% in data set [17] and 59% in [18]. Further, the inhibition constant Ki in data set [3] is 56 nM. For the same molecule, the results for the 50% effective concentration (EC50) in data set [4] and in [6] were 14 nM and 1560 nM, respectively.
As to `NC(=O)[C@]1(c2ccc(N)cn2)C[C@H]2CC[C@@H](C1)N2C(c1ccccc1Cl)c1ccccc1Cl`, in [8], the fold change (FC) is 4. Also, the Ki in [3] was determined as 31 nM; in data set [5], 205 nM.
Regarding `COc1ccc2c3c1O[C@H]1[C@@H](O)C=C[C@H]4[C@@H](C2)N(C)CC[C@@]341` [CODEINE], the ED50 in data set [9] was 6.7 mg/kg.
As to `NC(=O)[C@]1(c2ccc(Cl)cn2)C[C@H]2CC[C@@H](C1)N2C(c1ccccc1Cl)c1ccccc1Cl`, the ED50 in [13] came to 2.4 mg/kg. The Ratio in data set [1] is on record as 0.27. In addition, the Activity in [2] amounted to 97%; in data set [7], 145%. The Ki in data set [3] stood at 15 nM; in data set [5] it was 143 nM. Further, the EC50 in data set [4] worked out at 44 nM; in [6] it was 368 nM.
Take `N[C@]1(c2ccccn2)C[C@H]2CC[C@@H](C1)N2C(c1ccccc1Cl)c1ccccc1Cl`: the Ratio in data set [1] turned out to be 0.47. The fold change (FC) in data set [8] stood at 32. The inhibition constant Ki in [3] turned out to be 10 nM; in data set [5], 343 nM. In addition, the outcome in [11] was inactive.
Take `CC(=O)N[C@]1(c2ccc(F)cn2)C[C@H]2CC[C@@H](C1)N2C(c1ccccc1Cl)c1ccccc1Cl`: the Ratio in data set [1] is on record as 1.47. This molecule registered a fold change (FC) in data set [8] of 60. Also, the Ki stood at 10 nM in data set [3] and 601 nM in data set [5].
In the case of `NC(=O)c1ccc([C@@]2(C(N)=O)C[C@H]3CC[C@@H](C2)N3C(c2ccccc2Cl)c2ccccc2Cl)nc1`, the fold change (FC) in data set [8] was determined as 4. Further, the figures for the Ki in [3] and in [5] were 401 nM and 1320 nM, respectively.
Take `N[C@]1(c2ccc(F)cn2)C[C@H]2CC[C@@H](C1)N2C(c1ccccc1Cl)c1ccccc1Cl`: in data set [1], the Ratio is listed as 0.23. The fold change (FC) in data set [8] was determined as 32. The Ki amounted to 7 nM in data set [3] and 209 nM in data set [5]. In data set [11], the outcome was inactive.
Regarding `NC(=O)[C@]1(c2cccc(F)n2)C[C@H]2CC[C@@H](C1)N2C(c1ccccc1Cl)c1ccccc1Cl`, the Ratio in data set [1] was 1.06. In data set [8], this molecule displayed a fold change (FC) of 35. Further, the inhibition constant Ki in [3] was 10 nM; in [5], 348 nM.
